Assay results taken from US20250215039A1, “NUCLEOSIDES FOR TREATING CANCER” (PRIMEFOUR THERAPEUTICS, INC., priority 2022, published 2025).
Where two headings read alike, the source gives them in different places.

System: cancer cell lines
Test: Cancer cell proliferation activity (CellTiterGlo, 72 h)
Format: cell-based
Conditions: 72 h, 72 h, read-out: IC50
Experimental: Dose response relationships on cell proliferation was assessed for representative Compounds of the Disclosure on cancer cell lines. Briefly, compound treatment of cells started one day after seeding with a final DMSO concentration of 0.1%, and was performed by nanodrop-dispensing using a Tecan Dispenser. 0.1% DMSO (solvent) and Staurosporine (10 μM) served as high control (100% viability) and low control (0% viability), respectively.
Cells were cultured in the appropriate media. For the assays, cells were seeded in white cell culture-treated flat and clear bottom multiwell plates and incubated at 37° C. overnight before compound was added. After incubation for 72 h at 37° C. at 5% or 10% CO2 dependent on the medium, cell plates were equilibrated to room temperature for one hour, CellTiterGlo reagent (Promega) was added and luminescence was measured approximately an hour later using a luminometer.
Raw data were converted into percent cell viability relative to the high and low control, which were set to 100% and 0%, respectively.
The IC50 values are summarized in Tables 9A-1, Table 10A, and Table 10B.

In the case of `CC[C@]1(CO)O[C@@H](n2cc(F)c(N)nc2=O)C[C@@H]1O` [Cpd. No. 2, 4-amino-1-((2R,4S,5R)-5-ethyl-4-hydroxy-5-(hydroxymethyl)tetrahydrofuran-2-yl)-5-fluoropyrimidin-2(1H)-one], the IC50 (5637 cell line (bladder)) is reported as 8.67 µM, the IC50 (CLS439 cell line (bladder)) is reported as greater than 50 µM and the IC50 (HS729 cell line (muscle)) is reported as greater than 50 µM. It also gave an IC50 (JAR cell line (placenta)) greater than 50 µM, an IC50 (U20S cell line, bone) greater than 50 µM and an IC50 (Homo sapiens, 22Rv1, 72 h, 22RV1 cell line (prostate)) greater than 50 µM. The IC50 (Homo sapiens, 786-0, 72 h, 786O cell line (kidney)) was greater than 50 µM, the IC50 (Homo sapiens, A204, 72 h, A204 cell line (muscle)) was 1 µM and the IC50 (Homo sapiens, A549, 72 h, A549 cell line, lung) was greater than 50 µM. The IC50 (Homo sapiens, A673, 72 h, A673 cell line (bone)) was greater than 50 µM, the IC50 (Homo sapiens, A2780, 72 h, A2780 cell line (ovary)) was greater than 50 µM and the IC50 (Homo sapiens, A-375, 72 h, A375 cell line (skin)) was greater than 50 µM. The IC50 (Homo sapiens, A-431, 72 h, A431 cell line (skin)) was greater than 50 µM, the IC50 (Homo sapiens, ACHN, ACHN cell line (kidney)) was 3.2 µM and the IC50 (Homo sapiens, ASPC1, 72 h, ASPC1 cell line (pancreas)) was greater than 50 µM. It also gave an IC50 (Homo sapiens, BT-20, 72 h, BT20 cell line (breast)) greater than 50 µM, an IC50 (Homo sapiens, BXPC-3, 72 h, BXPC3 cell line (pancreas)) greater than 50 µM and an IC50 (Homo sapiens, C-33-A, C33A cell line, endometrial) of 4.92 µM. For the same compound, the IC50 (Homo sapiens, CAKI-1, 72 h, CAKI1 cell line (kidney)) was 1.36 µM, the IC50 (Homo sapiens, COLO 205, 72 h, COLO205 cell line (colon)) was greater than 50 µM and the IC50 (Homo sapiens, COLO-678, 72 h, COLO678 cell line (colon)) was greater than 50 µM. The IC50 (Homo sapiens, Ca-Ski, CASKI cell line, endometrial) was greater than 50 µM, the IC50 (Homo sapiens, Caco-2, 72 h, CACO2 cell line (colon)) was greater than 50 µM and the IC50 (Homo sapiens, Calu-6, 72 h, CALU6 cell line (lung)) was greater than 50 µM. It also gave an IC50 (Homo sapiens, DLD-1, 72 h, DLD1 cell line (colon)) greater than 50 µM, an IC50 (Homo sapiens, DU-145, 72 h, DU145 cell line (prostate)) greater than 50 µM and an IC50 (Homo sapiens, EFO-21, 72 h, EFO21 cell line (ovary)) greater than 50 µM. The IC50 (Homo sapiens, EJ-28, 72 h, EJ28 cell line (bladder)) was greater than 50 µM, the IC50 (Homo sapiens, Granta-519, 72 h, GRANTA-519 cell line (hematological)) was 1.12 µM and the IC50 (Homo sapiens, HCT-15, 72 h, HCT15 cell line (colon)) was greater than 50 µM. It also gave an IC50 (Homo sapiens, HCT-116, 72 h, HCT116 cell line (colon)) greater than 50 µM, an IC50 (Homo sapiens, HEK293, 72 h, HEK293 cell line (kidney)) greater than 50 µM and an IC50 (Homo sapiens, HL-60, 72 h, HL-60 cell line (hematological)) greater than 50 µM. The IC50 (Homo sapiens, HT-29, 72 h, HT29 cell line (colon)) was greater than 50 µM, the IC50 (Homo sapiens, HT-1080, 72 h, HT1080 cell line (connective tissue)) was greater than 50 µM and the IC50 (Homo sapiens, HeLa, HELA cell line, endometrial) was greater than 50 µM. It also gave an IC50 (Homo sapiens, HepG2, 72 h, HEPG2 cell line (liver)) greater than 50 µM, an IC50 (Homo sapiens, Hs-578T, HS578T cell line, breast) greater than 50 µM and an IC50 (Homo sapiens, IGROV-1, 72 h, IGROV1 cell line (ovary)) greater than 50 µM. For the same compound, the IC50 (Homo sapiens, IMR-90, 72 h, IMR90 cell line, lung) was greater than 50 µM, the IC50 (Homo sapiens, J82, 72 h, J82 cell line (bladder)) was greater than 50 µM and the IC50 (Homo sapiens, JEG-3, 72 h, JEG3 cell line (placenta)) was greater than 50 µM. The IC50 (Homo sapiens, JIMT-1, 72 h, JIMT1 cell line (breast)) was greater than 50 µM, the IC50 (Homo sapiens, K562, 72 h, K-562 cell line (hematological)) was greater than 50 µM and the IC50 (Homo sapiens, Kasumi 1, 72 h, KASUMI-1 cell line (hematological)) was greater than 50 µM. The IC50 (Homo sapiens, L-363, 72 h, L-363 cell line (hematological)) was greater than 50 µM, the IC50 (Homo sapiens, LoVo, LOVO cell line (colon)) was greater than 50 µM and the IC50 (Homo sapiens, MCF7, 72 h, MCF7 cell line (breast)) was greater than 50 µM. For the same compound, the IC50 (Homo sapiens, MDA-MB-231, 72 h, MDAMB231 cell line (breast)) was greater than 50 µM, the IC50 (Homo sapiens, MDA-MB-435, 72 h, MDAMB435 cell line (skin)) was greater than 50 µM and the IC50 (Homo sapiens, MDA-MB-436, 72 h, MDAMB436 cell line (breast)) was greater than 50 µM. The IC50 (Homo sapiens, MDA-MB-468, 72 h, MDAMB468 cell line (breast)) was greater than 50 µM, the IC50 (Homo sapiens, MG-63, 72 h, MG63 cell line (bone)) was greater than 50 µM and the IC50 (Homo sapiens, MHH-ES-1, 72 h, MHHES1 cell line (bone)) was greater than 50 µM. The IC50 (Homo sapiens, MIA PaCa-2, 72 h, MIAPACA2 cell line (pancreas)) was greater than 50 µM, the IC50 (Homo sapiens, MINO, MINO cell line (hematological)) was 0.25 µM and the IC50 (Homo sapiens, MV4-11, 72 h, MV4-11 cell line (hematological)) was 3.4 µM. The IC50 (Homo sapiens, NCI-H23, 72 h, NCI-H23 cell line (lung)) was greater than 50 µM, the IC50 (Homo sapiens, NCI-H82, 72 h, NCIH82 cell line (lung)) was greater than 50 µM and the IC50 (Homo sapiens, NCI-H292, 72 h, NCIH292 cell line (lung)) was greater than 50 µM. The IC50 (Homo sapiens, NCI-H460, 72 h, NCIH460 cell line (lung)) was 5.15 µM, the IC50 (Homo sapiens, OVCAR-3, 72 h, OVCAR3 cell line (ovary)) was greater than 50 µM and the IC50 (Homo sapiens, OVCAR-4, 72 h, OVCAR4 cell line (ovary)) was greater than 50 µM. The IC50 (Homo sapiens, PANC-1, 72 h, PANC1 cell line (pancreas)) was greater than 50 µM, the IC50 (Homo sapiens, PC-3, 72 h, PC3 cell line (prostate)) was greater than 50 µM and the IC50 (Homo sapiens, PLC-PRF-5, 72 h, PLCPRF5 cell line (liver)) was greater than 50 µM. It also gave an IC50 (Homo sapiens, Panc1005, 72 h, PANC1005 cell line (pancreas)) greater than 50 µM, an IC50 (Homo sapiens, RD, RD cell line (muscle)) greater than 50 µM and an IC50 (Homo sapiens, Ramos, RAMOS cell line (hematological)) of 1.77 µM. The IC50 (Homo sapiens, SAOS-2, 72 h, SAOS2 cell line (bone)) was greater than 50 µM, the IC50 (Homo sapiens, SF-268, 72 h, SF268 cell line (brain)) was greater than 50 µM and the IC50 (Homo sapiens, SF-295, 72 h, SF295 cell line (brain)) was greater than 50 µM. For the same compound, the IC50 (Homo sapiens, SK-BR-3, 72 h, SKBR3 cell line (breast)) was 17 µM, the IC50 (Homo sapiens, SK-HEP1, 72 h, SKHEP1 cell line (liver)) was greater than 50 µM and the IC50 (Homo sapiens, SK-LMS-1, 72 h, SKLMS1 cell line (uterus)) was greater than 50 µM. For the same compound, the IC50 (Homo sapiens, SK-MEL-5, 72 h, SKMEL5 cell line, skin) was greater than 50 µM, the IC50 (Homo sapiens, SK-MEL-28, 72 h, SKMEL28 cell line (skin)) was greater than 50 µM and the IC50 (Homo sapiens, SK-N-AS, SKNAS cell line (brain)) was greater than 50 µM. It also gave an IC50 (Homo sapiens, SK-N-SH, SKNSH cell line (brain)) greater than 50 µM, an IC50 (Homo sapiens, SK-OV-3, 72 h, SKOV3 cell line (ovary)) greater than 50 µM and an IC50 (Homo sapiens, SNB-75, 72 h, SNB75 cell line (brain)) greater than 50 µM. For the same compound, the IC50 (Homo sapiens, SU-DHL10, 72 h, SU-DHL-10 cell line (hematological)) was 1.97 µM, the IC50 (Homo sapiens, SU-DHL-6, 72 h, SU-DHL-6 cell line (hematological)) was greater than 50 µM and the IC50 (Homo sapiens, SW-620, 72 h, SW620 cell line (colon)) was greater than 50 µM. The IC50 (Homo sapiens, T-24, 72 h, T24 cell line (bladder)) was greater than 50 µM, the IC50 (Homo sapiens, TE-671, 72 h, TE671 cell line (muscle)) was greater than 50 µM and the IC50 (Homo sapiens, THP-1, 72 h, THP-1 cell line (hematological)) was greater than 50 µM. The IC50 (Homo sapiens, U-87 MG, U87MG cell line (brain)) was greater than 50 µM, the IC50 (Homo sapiens, UMUC3, 72 h, UMUC3 cell line (bladder)) was greater than 50 µM and the IC50 (Homo sapiens, UO-31, 72 h, UO31 cell line (kidney)) was greater than 50 µM. The IC50 (Homo sapiens, WSU-NHL, WSU-NHL cell line (hematological)) was 2.5 µM, the IC50 (MT-3, 72 h, MT3 cell line (breast)) was greater than 50 µM and the IC50 (NCI-H358M, NCIH358M cell line (lung)) was greater than 50 µM. It also gave an IC50 (PBMC, PBMC (hematological)) greater than 50 µM and an IC50 (RD-ES, RDES cell line (bone)) greater than 50 µM.
